# Values quoted from earlier work, collected in US11707455B2, “Pharmaceutical composition containing dabigatran etexilate and preparation method thereof” (SHANGHAI WD PHARMACEUTICAL CO., LTD, priority 2018, dated 2023).
# Key:
# [1] = pH 1
# [2] = in vivo
smiles,measurement,setting,value
CCCCCCOC(=O)N=C(N)c1ccc(NCc2nc3cc(C(=O)N(CCC(=O)OCC)c4ccccn4)ccc3n2C)cc1.CS(=O)(=O)O [DEM],maximum solubility,[1],greater than 80 mg/mL
same,Cmax variation range,[2],≤ 5 folds
